Here are results for eight compounds from PMC7694328, “Synthesis and Glycosidase Inhibition Properties of Calix[8]arene-Based Iminosugar Click Clusters” (Pharmaceuticals, 2020).

Values joined by “and” are separate entries in the source; they are usually repeats but may differ in a detail not shown here. Equal entries are not always repeated. Where two headings read alike, the source gives them in different places.

One may read the Ki as the dissociation constant of the complex between target and ligand, obtained from inhibition or displacement.

Test [1] addresses T1, Jack Bean α-mannosidase (JBα-man) (Canavalia ensiformis, UniProt C0HJB3).
T1 construct: two LH heterodimers, each constituted by two distinct chains, L and H; purchased Sigma Aldrich
T1 sequence (C0HJB3 1-562 limits assumed): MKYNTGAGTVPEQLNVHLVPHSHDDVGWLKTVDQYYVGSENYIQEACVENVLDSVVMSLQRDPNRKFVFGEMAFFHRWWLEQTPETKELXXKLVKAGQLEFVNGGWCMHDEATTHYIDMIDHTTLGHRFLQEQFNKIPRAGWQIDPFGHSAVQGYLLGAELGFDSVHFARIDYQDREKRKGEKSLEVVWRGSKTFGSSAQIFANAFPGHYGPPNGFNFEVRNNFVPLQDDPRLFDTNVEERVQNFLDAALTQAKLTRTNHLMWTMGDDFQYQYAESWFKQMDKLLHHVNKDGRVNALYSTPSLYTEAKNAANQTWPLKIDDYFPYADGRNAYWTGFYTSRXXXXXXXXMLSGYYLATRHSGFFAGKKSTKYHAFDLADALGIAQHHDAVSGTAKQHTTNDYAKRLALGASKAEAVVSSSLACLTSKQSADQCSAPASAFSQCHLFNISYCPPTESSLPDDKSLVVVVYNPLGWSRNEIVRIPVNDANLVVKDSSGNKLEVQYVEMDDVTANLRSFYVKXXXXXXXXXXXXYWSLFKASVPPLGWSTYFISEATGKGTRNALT
T1 sequence (C0HJB3 563-981 limits assumed): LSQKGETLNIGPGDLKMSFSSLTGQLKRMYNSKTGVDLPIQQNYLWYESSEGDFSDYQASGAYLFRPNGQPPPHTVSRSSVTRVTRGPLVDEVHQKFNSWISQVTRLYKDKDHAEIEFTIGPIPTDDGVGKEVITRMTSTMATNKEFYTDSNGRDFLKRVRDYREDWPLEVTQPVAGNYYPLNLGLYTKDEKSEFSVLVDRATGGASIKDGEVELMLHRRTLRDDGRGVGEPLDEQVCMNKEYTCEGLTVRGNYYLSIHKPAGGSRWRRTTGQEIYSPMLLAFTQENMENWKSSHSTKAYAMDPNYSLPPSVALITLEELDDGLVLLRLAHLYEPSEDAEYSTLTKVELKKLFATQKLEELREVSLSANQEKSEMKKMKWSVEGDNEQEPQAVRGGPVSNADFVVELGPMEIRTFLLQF
The following applies: cited from earlier work; for rp/n: cyclopeptoid-based clusters.

Test [2] has as its target T1, Jack Bean α-mannosidase (JBα-man). The test is described as follows: Inhibition assay against Jack Bean α-mannosidase (hydrolysis of p-nitrophenyl-α-D-mannopyranoside). In kind it is biochemical. The method, then: p-nitrophenyl-α-D-mannopyranoside and α-mannosidase (EC 3.2.1.24, from Jack Bean, Km = 2.0 mM pH 5.5) were purchased from Sigma Aldrich(St. Louis, MO, USA).
General procedure for Inhibition assay with basic quench: Inhibitory potencies were determined spectrophotometrically (Versamax 96-well plate spectrophotometer, Molecular Devices Corporation, Sunnyvale, CA, USA) measuring the residual hydrolytic activities of the mannosidase against p-nitrophenyl-α-D-mannopyranoside in the presence and absence of the inhibitor. All kinetics were performed at 25 °C and started by enzyme addition (0.015 U/mL) in a 100 µL assay medium (acetate buffer, 0.2 M, pH = 5) containing substrate (varying concentration from Km/8 to 2Km value) in presence or absence of various concentrations of inhibitor. After 40–50 min incubation, the reaction was quenched by addition of 1M Na2CO3 (100 µL). The absorbance of the resulting solution was determined at 405 nm. Ki values were determined in duplicate or triplicate, using the Dixon and Lineweaver–Burk graphical methods with Microsoft Excel 97-03, or using non-linear regression with GraphPad Prism 7 Software. As the inhibitors are only partially soluble in water, they were dissolved in DMSO for concentrated mother solutions and DMSO/buffer for diluted solutions with a final DMSO concentration under 4% in all wells. Previously, the stability of the enzymes in presence of various concentrations of DMSO was controlled and the enzyme activity was unaffected.
General procedure for inhibition assay measured continuously: The release of p-nitrophenol was measured continuously at 385 nm to determine initial velocities. […] Under these conditions, the p-nitrophenolate released led to optical densities linear with both reaction time and concentration of the enzyme. Ki values were determined in duplicate or quadruplate, using the Dixon graphical method. As the inhibitors are only partially soluble in water, they were dissolved in DMSO for concentrated mother solutions and DMSO/buffer for diluted solutions with a final DMSO concentration under 5% in all vials. […]

Setting [3] is: calix[4]arene cluster and its monovalent reference, read-out: Ki.

As to `O=C1CN(Cc2cn(CCCCCCCCCN3C[C@H](O)[C@@H](O)[C@H](O)[C@H]3CO)nn2)C(=O)CN(Cc2cn(CCCCCCCCCN3C[C@H](O)[C@@H](O)[C@H](O)[C@H]3CO)nn2)C(=O)CN(Cc2cn(CCCCCCCCCN3C[C@H](O)[C@@H](O)[C@H](O)[C@H]3CO)nn2)C(=O)CN(Cc2cn(CCCCCCCCCN3C[C@H](O)[C@@H](O)[C@H](O)[C@H]3CO)nn2)C(=O)CN(Cc2cn(CCCCCCCCCN3C[C@H](O)[C@@H](O)[C@H](O)[C@H]3CO)nn2)C(=O)CN1Cc1cn(CCCCCCCCCN2C[C@H](O)[C@@H](O)[C@H](O)[C@H]2CO)nn1` [Compound 1a], the rp/n in test [1] is 3 and ~ 3.

For the compound `O=C1CN(Cc2cn(CCCCCCCCCN3C[C@H](O)[C@@H](O)[C@H](O)[C@H]3CO)nn2)C(=O)CN(Cc2cn(CCCCCCCCCN3C[C@H](O)[C@@H](O)[C@H](O)[C@H]3CO)nn2)C(=O)CN(Cc2cn(CCCCCCCCCN3C[C@H](O)[C@@H](O)[C@H](O)[C@H]3CO)nn2)C(=O)CN(Cc2cn(CCCCCCCCCN3C[C@H](O)[C@@H](O)[C@H](O)[C@H]3CO)nn2)C(=O)CN(Cc2cn(CCCCCCCCCN3C[C@H](O)[C@@H](O)[C@H](O)[C@H]3CO)nn2)C(=O)CN(Cc2cn(CCCCCCCCCN3C[C@H](O)[C@@H](O)[C@H](O)[C@H]3CO)nn2)C(=O)CN(Cc2cn(CCCCCCCCCN3C[C@H](O)[C@@H](O)[C@H](O)[C@H]3CO)nn2)C(=O)CN1Cc1cn(CCCCCCCCCN2C[C@H](O)[C@@H](O)[C@H](O)[C@H]2CO)nn1` [Compound 1b], the rp/n in test [1] was 3 and ~ 3.

`CC(C)(C)c1cc2c(OCc3cn(CCCN4C[C@H](O)[C@@H](O)[C@H](O)[C@H]4CO)nn3)c(c1)Cc1cc(C(C)(C)C)cc(c1OCc1cn(CCCN3C[C@H](O)[C@@H](O)[C@H](O)[C@H]3CO)nn1)Cc1cc(C(C)(C)C)cc(c1OCc1cn(CCCN3C[C@H](O)[C@@H](O)[C@H](O)[C@H]3CO)nn1)Cc1cc(C(C)(C)C)cc(c1OCc1cn(CCCN3C[C@H](O)[C@@H](O)[C@H](O)[C@H]3CO)nn1)C2` [Compound 2]: the inhibitory constant (Ki) in test [1] (setting [3]) is 1.5 µM. The “rp/n (affinity enhancement per iminosugar)” value in test [1] (calix[4]arene cluster) is 70 and ~ 70.

Turning to `CCCc1cn(CCCCCCN2C[C@H](O)[C@@H](O)[C@H](O)[C@H]2CO)nn1` [Compound 3], the Ki in test [1] (monovalent reference, C6 chain, read-out: Ki) was 322 µM.

As to `CCCc1cn(CCCCCCCCCN2C[C@H](O)[C@@H](O)[C@H](O)[C@H]2CO)nn1` [Compound 4], in test [1] (monovalent reference, C9 chain, read-out: Ki), the Ki was 188 µM.

On to `OCc1cn(CCCN2C[C@H](O)[C@@H](O)[C@H](O)[C@H]2CO)nn1` [Compound 5], for which, in test [1] (setting [3]), the Ki was 400 µM.

For the compound `CC(C)(C)c1cc2c3c(c1)Cc1cc(C(C)(C)C)cc(c1OCc1cn(CCCCCCN4C[C@H](O)[C@@H](O)[C@H](O)[C@H]4CO)nn1)Cc1cc(C(C)(C)C)cc(c1OCc1cn(CCCCCCN4C[C@H](O)[C@@H](O)[C@H](O)[C@H]4CO)nn1)Cc1cc(C(C)(C)C)cc(c1OCc1cn(CCCCCCN4C[C@H](O)[C@@H](O)[C@H](O)[C@H]4CO)nn1)Cc1cc(C(C)(C)C)cc(c1OCc1ccc(cc1)CO3)Cc1cc(C(C)(C)C)cc(c1OCc1cn(CCCCCCN3C[C@H](O)[C@@H](O)[C@H](O)[C@H]3CO)nn1)Cc1cc(C(C)(C)C)cc(c1OCc1cn(CCCCCCN3C[C@H](O)[C@@H](O)[C@H](O)[C@H]3CO)nn1)Cc1cc(C(C)(C)C)cc(c1OCc1cn(CCCCCCN3C[C@H](O)[C@@H](O)[C@H](O)[C@H]3CO)nn1)C2` [Compound 7a], the inhibition mode result in test [2] is given as “competitive inhibitors”. The affinity in test [2] (means ± SD, triplicate) corresponds to a Ki of 7.7 ± 0.7 µM. Also, in test [2] (rp/number of DNJ units), the “rp/n (relative inhibition potency per DNJ unit)” value stood at 7.

On to `OC[C@@H]1[C@@H](O)[C@H](O)[C@H](O)c2nccn21` [mannoimidazole], for which the Ki in test [1] (monovalent inhitope, read-out: Ki (monovalent)) is 0.11 µM.
